In patent US8071575B2, “Methods and compounds for the targeted delivery of agents to bone for interaction therewith” (priority 2007, dated 2011):
In brackets after ≈: the same amount, converted by molar mass.

Tests used:
[1] = Hydroxyapatite (HA) Binding Assay; conditions: 10^−5 M analyte, 50 mM Tris-HCl pH 7.4, 1% DMSO; adjusted such that tetracycline = 100
Procedure: A Hydroxyapatite (HA) Binding Assay is used to determine whether compounds have an affinity for bone. Compounds of the presently-disclosed subject matter having a Bone Targeting Portion (RT) are studied using the HA Binding Assay. A 10^−3 M solution of each analyte was made in 100% dimethylsulfoxide (DMSO). A 100 fold dilution was then made to form a 10^−5 M solution in 50 mM Tris-HCl buffer, pH 7.4, 1% DMSO. Tetracycline was used as a reference analyte and approximately 50% was adsorbed to HA at the concentration of 10^−5 M. The HA slurry was 0.5 g/100 mL 50 mM Tris-HCl buffer, 1% DMSO.
For each analyte, two samples were prepared. For one sample, 1 mL of 10^−5 M analyte and 100 μL 50 mM Tris-HCl buffer, 1% DMSO was pipetted into a microcentrifuge tube. For the second sample, 1 mL of 10^−5 M analyte and 100 μL of the HA slurry was pipetted into a microcentrifuge tube. The samples were mixed gently by inversion for 4 minutes and then centrifuged at 12,000 g for 3 minutes to sediment the HA contained in those samples. The supernatant was transferred to another microcentrifuge tube.
An electronic spectral scan (ultraviolet-visible) from 220-520 nm was obtained for each analyte using a Varian Cary 300 Bio Scan. The blank was 50 mM Tris-HCl buffer, 1% DMSO. The wavelength of maximum absorbance (λmax) was determined, and the extinction coefficient (ε) was calculated using the Beer-Lambert Law.
The absorbance of the samples incubated with HA was measured at λmax, and the molar concentration of the analyte was then determined using the Beer-Lambert Law and the previously calculated extinction coefficient. The fraction adsorbed to HA for each sample was subsequently calculated.

[2] = system: SUM1315 human breast cancer cells; experiment: Anti-cancer effect: colony formation assay; format: cell-based; conditions: 0.05, 0.1, 0.5, 1, 5, and 10 μM, 10 days
Procedure: Anti-Cancer Effect: Colony formation assay. The anti-cancer effect of compounds including a bone active portion (RA) derived from an anti-cancer agent was tested. SUM1315 human breast cancer cells (derived from a clinical metastatic nodule) were seeded in 6 well plates at 5000 cells/well in 2 ml of medium. Cells were allowed to adhere overnight prior to drug treatment. Compounds of the presently-disclosed subject matter including a bone active portion (RA) derived from an anti-cancer agent, or the free anti-cancer agent, were added to the cells at concentrations of 0.05, 0.1, 0.5, 1, 5, and 10 μM and cells were allowed to grow at 37° C. for 10 days. In addition, untreated and vehicle (0.1% DMSO) treated wells were included as controls. After 10 days of treatment, medium was removed from each well and cells were subsequently washed with water. Cells were then fixed in 10% formaldehyde for 10 minutes, washed with water and then stained with 0.5% crystal violet for 5 minutes. Colonies of cells were subsequently counted under the microscope in three separate frames. Three independent experiments were performed and the results are an average of the three experiments. Images were obtained from a representative well for each concentration.

[3] = system: SUM1315 human breast cancer cells; experiment: Anti-cancer effect: cell proliferation (MTT) assay; format: cell-based; conditions: 0.05, 0.1, 0.5, 1, 5, and 10 μM, days 1-6
Text: Anti-Cancer Effect: Cell Proliferation Assay. The colorometric MTT assay is based on the cleavage of a yellow MTT tetrazolium salt to form purple formazan crystals by the mitochondria of metabolically active and viable cells. The formazan crystals are insoluble in aqueous solution but can be dissolved in acid and quantified using a spectrophotometer. The number of living and viable cells in a sample directly correlates to the amount of purple formazan crystals formed. SUM1315 human breast cancer cells were seeded in triplicate in 96 well plates at 1000 cells/well and were allowed to adhere overnight prior to drug treatment. Compounds of the presently-disclosed subject matter including a bone active portion (RA) derived from an anti-cancer agent, or the free anti-cancer agent, were added to the cells at concentrations of 0.05, 0.1, 0.5, 1, 5, and 10 μM and cells were allowed to grow at 37° C. for 1, 2, 3, 4, 5, or 6 days. In addition, untreated and vehicle (0.1% DMSO) treated wells were included at each time point as controls. Following treatment the MTT assay was subsequently performed and the absorbance at 490 nm was recorded. Three independent experiments were performed and the results were averaged.

[4] = system: Staphylococcus aureus ATCC 49230; experiment: MIC, broth microdilution, S. aureus ATCC 49230; format: cell-based; conditions: ATCC49230, read-out: minimum inhibitory concentration (MIC)
Procedure: (§1) Antimicrobial Effect: Minimum Inhibitory Concentration (MIC) of a Test Compound Against Isolates of Staphylococcus aureus. The Minimum inhibitory concentration (MIC) of compounds of the presently-disclosed subject matter including a bone active portion (RA) derived from an antimicrobial agent, and free antimicrobial agents, were determined by Ricerca Biosciences LLC (Concord, Ohio) using the standard in vitro broth microdilution assay (CLSI). Two isolates of S. aureus, one resistant to Methicillin (ATCC 33591) and one nonresistant to Methicillin (ATCC 49230) were used for the evaluation. ATCC 49230 is a clinical isolate from a patient with chronic osteomyelitis. Additionally, a quality control isolate (ATCC 29213) was included in the analysis. Briefly, twelve, serial, one-half dilutions of compounds of the presently-disclosed subject matter including a bone active portion (RA) derived from an antimicrobial agent, and free antimicrobial agents, were prepared in 96-well plates in Mueller Hinton Broth (MHB). The highest concentration of each compound used was 64 μg/mL. Bacterial suspensions were prepared and added to each well at a concentration of approximately 5×10^5 colony-forming-units per milliliter. The inoculated plates were incubated for 16-20 h at 35±1° C. At the completion of incubation, the wells of each plate were evaluated visually for the presence of bacterial growth. […]

[5] = system: Staphylococcus aureus ATCC 33591; experiment: MIC, broth microdilution, S. aureus ATCC 33591 (MRSA); format: cell-based; conditions: read-out: minimum inhibitory concentration (MIC)
Procedure: as §1

[6] = system: Staphylococcus aureus ATCC 29213; experiment: MIC, broth microdilution, S. aureus ATCC 29213 (QC strain); format: cell-based; conditions: ATCC29213, read-out: minimum inhibitory concentration (MIC)
Procedure: as §1

[7] = system: Staphylococcus aureus ATCC 29213; conditions: ATCC 29213, QC strain, acceptance range; cited from earlier work

Row | Binding Index (binding to hydroxyapatite) [1] | Compound | colony formation [2] | cell proliferation (MTT) [3] | MIC [4] [µg/mL] | MIC [5] [µg/mL] | MIC [6] [µg/mL] | acceptable vancomycin MIC range [7]
1 | 60 | COc1cccc2c1C(=O)c1c(O)c3c(c(O)c1C2=O)C[C@@](O)(C(=O)CO)C[C@H]3OC1C[C@H](NC(=O)CCCC(=O)NCCOCCOCC(=O)Nc2ccc(OC)c(C(N)=O)c2O)[C@H](O)[C@H](C)O1 (stereo partly shown) [Formula 138] | dose-responsive decrease in colony formation | dose-responsive decrease in cell proliferation |  |  |  | 
2 |  | CN[C@H](CC(C)C)C(=O)N[C@H]1C(=O)N[C@@H](CC(N)=O)C(=O)N[C@H]2C(=O)N[C@H]3C(=O)N[C@H](C(=O)N[C@H](C(=O)O)c4cc(O)cc(O)c4-c4cc3ccc4O)[C@H](O)c3ccc(c(Cl)c3)Oc3cc2cc(c3O[C@@H]2O[C@H](CO)[C@@H](O)[C@H](O)[C@H]2O[C@H]2C[C@](C)(N)[C@H](O)[C@H](C)O2)Oc2ccc(cc2Cl)[C@H]1O [vancomycin] |  |  | 1 (≈ 0.69 µM) | 1 (≈ 0.69 µM) | 1 (≈ 0.69 µM) | ^cQC strain: Acceptable vancomycin MIC range: 0.5-2 μg/mL
